Test results published in patent US10214508B2, “Nitrogen-containing heterocyclic compound” (Takeda Pharmaceutical Company Limited, priority 2014, dated 2019).

Each molecule was assayed against T1, human M1 receptor (hCHRM1) (Homo sapiens, UniProt P11229) (assay: Measurement of M1 receptor positive allosteric modulator (M1PAM) activity, calcium fluorescence (FLIPRtetra)). Conditions: 10 μM test compound with acetylcholine at EC20 (final 0.6-0.8 nM); 100% = acetylcholine 1 μM, 0% = DMSO; CHO-K1 cells expressing hCHRM1.
T1 construct: expressed in transfected cells
T1 sequence (P11229 1-460): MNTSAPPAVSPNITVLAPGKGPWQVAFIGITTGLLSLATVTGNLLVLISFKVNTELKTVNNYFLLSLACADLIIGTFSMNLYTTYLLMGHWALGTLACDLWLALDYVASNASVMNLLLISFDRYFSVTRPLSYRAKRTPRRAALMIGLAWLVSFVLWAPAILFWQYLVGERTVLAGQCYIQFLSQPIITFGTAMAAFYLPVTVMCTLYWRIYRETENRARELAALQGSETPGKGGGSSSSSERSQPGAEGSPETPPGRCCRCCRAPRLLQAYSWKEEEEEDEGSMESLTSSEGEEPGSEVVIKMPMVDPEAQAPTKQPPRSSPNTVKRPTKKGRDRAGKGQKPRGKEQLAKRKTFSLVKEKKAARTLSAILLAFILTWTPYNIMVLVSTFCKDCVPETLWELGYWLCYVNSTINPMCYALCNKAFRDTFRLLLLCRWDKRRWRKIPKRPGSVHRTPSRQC
Format: cell-based
Outline: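 CHO-K1 cells stably expressing hM1 were Fluo-4-loaded; compound added with acetylcholine at EC20 (0.6-0.8 nM final), calcium fluorescence read 1 min on FLIPRtetra. Activity scaled between DMSO (0%) and 1 μM acetylcholine (100%); inflection point of concentration–response reported as IP.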
In the case of `Cc1nc(C(=O)N[C@H]2CCCC[C@@H]2O)cc(Cc2ccc(-n3cccn3)cc2)c1C#N` [Example 112, 5-cyano-N-((1S,2S)-2-hydroxycyclohexyl)-6-methyl-4-(4-(1H-pyrazol-1-yl)benzyl)pyridine-2-carboxamide], the “activity (%) at 10 μM” value is reported as 91%.
In the case of `COc1cnc(C(=O)N[C@H]2CCCC[C@@H]2O)cc1Cc1ccc(-c2cnn(C)c2)cc1` [Example 64, N-((1S,2S)-2-hydroxycyclohexyl)-5-methoxy-4-(4-(1-methyl-1H-pyrazol-4-yl)benzyl)pyridine-2-carboxamide], the “activity (%) at 10 μM” value is reported as 104%.
`COc1nc(C(=O)N[C@H]2COCC[C@@H]2O)cc(Cc2ccc(-n3cccn3)cc2)c1C` [Example 92, 1,5-anhydro-2,4-dideoxy-2-(((6-methoxy-5-methyl-4-(4-(1H-pyrazol-1-yl)benzyl)pyridin-2-yl)carbonyl)amino)-L-threo-pentitol] was tested, and the “activity (%) at 10 μM” value was 99%.
For `Cc1cnc(C(=O)NC2CCOCC2O)cc1Cc1ccc(-c2ccn(C)n2)cc1` (stereo not shown) [Example 21, 1,5-anhydro-2,3-dideoxy-3-(((5-methyl-4-(4-(1-methyl-1H-pyrazol-3-yl)benzyl)pyridin-2-yl)carbonyl)amino)pentitol], the “activity (%) at 10 μM” value was 89%.
In the case of `Cn1ccc(-c2ccc(Cc3cc(C(=O)N[C@H]4COCC[C@@H]4O)ncc3C(F)F)cc2)n1` [Example 40, 1,5-anhydro-2,4-dideoxy-2-(((5-(difluoromethyl)-4-(4-(1-methyl-1H-pyrazol-3-yl)benzyl)pyridin-2-yl)carbonyl)amino)-L-threo-pentitol], the “activity (%) at 10 μM” value is reported as 95%.
For `COc1cnc(C(=O)N[C@H]2CCCC[C@@H]2O)cc1Cc1ccc(Cl)nc1` [Example 57, 4-((6-chloropyridin-3-yl)methyl)-N-(2-trans-hydroxycyclohexyl)-5-methoxypyridine-2-carboxamide], the “activity (%) at 10 μM” value was 95%.
`Cc1cnc(C(=O)NC2CCCOC2)cc1Cc1ccc(-c2ccn(C)n2)cc1` (stereo not shown) [Example 32, 5-methyl-4-(4-(1-methyl-1H-pyrazol-3-yl)benzyl)-N-(tetrahydro-2H-pyran-3-yl)pyridine-2-carboxamide] was tested, and the “activity (%) at 10 μM” value was 101%.
For `N#Cc1cnc(C(=O)N[C@H]2CCCC[C@@H]2O)cc1Cc1ccc(-n2cccn2)cc1` [Example 67, 5-cyano-N-((1S,2S)-2-hydroxycyclohexyl)-4-(4-(1H-pyrazol-1-yl)benzyl)pyridine-2-carboxamide], the “activity (%) at 10 μM” value was 95%.
In the case of `Cc1nc(C(=O)N[C@H]2CCCC[C@@H]2O)cc(Cc2ccc(-c3cnn(C)c3)cc2)c1C` [Example 79, N-((1S,2S)-2-hydroxycyclohexyl)-5,6-dimethyl-4-(4-(1-methyl-1H-pyrazol-4-yl)benzyl)pyridine-2-carboxamide], the “activity (%) at 10 μM” value is reported as 106%.
`Cc1nc(C(=O)N[C@H]2CCC[C@@H]2O)cc(Cc2ccc(-n3cccn3)cc2)c1Cl` [Example 100, 5-chloro-N-((1S,2S)-2-hydroxycyclopentyl)-6-methyl-4-(4-(1H-pyrazol-1-yl)benzyl)pyridine-2-carboxamide] was tested, and the “activity (%) at 10 μM” value was 97%.
For `COc1cnc(C(=O)N[C@H]2CCCC[C@@H]2O)cc1Cc1ccc(-c2cnn(C)c2)nc1` [Example 59, N-((1S,2S)-2-hydroxycyclohexyl)-5-methoxy-4-((6-(1-methyl-1H-pyrazol-4-yl)pyridin-3-yl)methyl)pyridine-2-carboxamide], the “activity (%) at 10 μM” value was 90%.
`Cc1cnc(C(=O)N[C@H]2CCC[C@@H]2O)cc1Cc1ccc(-n2cccn2)cc1F` [Example 13, 4-(2-fluoro-4-(1H-pyrazol-1-yl)benzyl)-N-((1S,2S)-2-hydroxycyclopentyl)-5-methylpyridine-2-carboxamide] was tested, and the “activity (%) at 10 μM” value was 92%.
In the case of `Cc1cnc(C(=O)N[C@H]2CCC[C@@H]2O)cc1Cc1ccc(-n2cccn2)cc1` [Example 50, N-((1S,2S)-2-hydroxycyclopentyl)-5-methyl-4-(4-(1H-pyrazol-1-yl)benzyl)pyridine-2-carboxamide], the “activity (%) at 10 μM” value is reported as 105%.
